Legend:
[1] = In vivo percentage antigoiter activity of compound was determined; assay type: functional, Rattus norvegicus; parameters: concentration or dose not given beside the values
[2] = In vitro percentage thymocyte activity of compound was determined in rat; assay type: functional; parameters: concentration or dose not given beside the values
[3] = molecular target: T1, Thyroxine-binding globulin (Homo sapiens) (UniProt P05543); assay: Percentage thyroxine-binding globulin (TBG) binding activity of compound was determined in human serum; assay type: cell-free
T1 sequence (whole entry): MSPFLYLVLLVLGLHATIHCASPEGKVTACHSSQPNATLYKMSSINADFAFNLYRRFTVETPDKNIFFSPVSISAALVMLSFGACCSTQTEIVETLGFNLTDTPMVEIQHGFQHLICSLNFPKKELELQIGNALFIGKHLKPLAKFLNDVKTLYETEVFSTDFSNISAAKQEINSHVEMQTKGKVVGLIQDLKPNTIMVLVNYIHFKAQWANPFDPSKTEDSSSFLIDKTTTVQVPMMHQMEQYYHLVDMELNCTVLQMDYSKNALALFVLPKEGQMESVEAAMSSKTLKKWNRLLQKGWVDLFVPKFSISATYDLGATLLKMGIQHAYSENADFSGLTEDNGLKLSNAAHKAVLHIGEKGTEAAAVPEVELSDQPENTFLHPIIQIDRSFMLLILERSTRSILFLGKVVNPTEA

[4] = species: Rattus norvegicus; assay: In vitro binding affinity of compound to the rat Hepatic nuclear protein receptors was determined
[5] = molecular target: T1, Thyroxine-binding globulin (Homo sapiens); assay: Percentage thyroxine-binding globulin binding activity of compound was determined in human serum; assay type: cell-free

| Activity [3] | Activity [4] | Activity [5] | SMILES | Activity [1] | Activity [2] |
| --- | --- | --- | --- | --- | --- |
| 9% | – | – | N[C@@H](Cc1cc(I)c(Oc2ccc(O)c(I)c2)c(I)c1)C(=O)O [LIOTHYRONINE] | 100% | 100% |
| 0% | 0.1% | – | Cc1cc(Oc2c(C)cc(CC(N)C(=O)O)cc2C)ccc1O (centres undefined) | 0.36% | 23% |
| 0.05% | 0.7% | – | Cc1cc(CC(N)C(=O)O)cc(C)c1Oc1ccc(O)c(C(C)C)c1 (centres undefined) | 3.6% | 48% |
| 0% | 0.1% | – | Cc1cc(Oc2c(C)cc(CC(N)C(=O)O)cc2C)cc(C)c1O (centres undefined) | 0.54% | 23% |
| – | 12.5% | 100% | N[C@@H](Cc1cc(I)c(Oc2cc(I)c(O)c(I)c2)c(I)c1)C(=O)O [LEVOTHYROXINE] | 18% | 30% |

Reference: ChEMBL document CHEMBL1121443, “Role of iodine in thyroid hormones: molecular conformation of a halogen-free hormone analogue” (1980)
